Here are results for twelve molecules from ChEMBL document CHEMBL1201862, “PubChem BioAssay data set” (2004).

Several values for one entry are separate records, joined by “and”; a condition that tells them apart may be missing. Equal entries are not always repeated. Activity calls are given as the source filed them.

The target of experiment [1] is G-protein coupled receptor 183 (Homo sapiens, UniProt P32249). Kind of experiment: SAR confirmation of small molecule antagonists of the EBI2 receptor via a luminescent beta-arrestin assa. Format: functional.
Chain of G-protein coupled receptor 183 (P32249 whole entry): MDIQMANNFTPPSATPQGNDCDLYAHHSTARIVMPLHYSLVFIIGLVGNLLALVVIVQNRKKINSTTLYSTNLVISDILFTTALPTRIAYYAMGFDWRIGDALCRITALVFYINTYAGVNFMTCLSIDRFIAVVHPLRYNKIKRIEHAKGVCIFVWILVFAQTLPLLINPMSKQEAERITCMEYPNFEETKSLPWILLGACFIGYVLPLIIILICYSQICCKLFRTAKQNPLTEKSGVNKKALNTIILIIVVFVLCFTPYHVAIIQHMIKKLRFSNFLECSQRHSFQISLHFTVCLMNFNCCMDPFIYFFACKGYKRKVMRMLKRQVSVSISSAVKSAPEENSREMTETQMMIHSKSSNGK
For experiment [2], the target named is Sphingosine 1-phosphate receptor 2 (Homo sapiens, UniProt O95136). Kind of experiment: Dose Response Cell Based Assay for Agonists of the S1P2 Receptor. [Related pubchem assays: 729, 736, 843 ]. Format: functional.
Chain of Sphingosine 1-phosphate receptor 2 (O95136 whole entry): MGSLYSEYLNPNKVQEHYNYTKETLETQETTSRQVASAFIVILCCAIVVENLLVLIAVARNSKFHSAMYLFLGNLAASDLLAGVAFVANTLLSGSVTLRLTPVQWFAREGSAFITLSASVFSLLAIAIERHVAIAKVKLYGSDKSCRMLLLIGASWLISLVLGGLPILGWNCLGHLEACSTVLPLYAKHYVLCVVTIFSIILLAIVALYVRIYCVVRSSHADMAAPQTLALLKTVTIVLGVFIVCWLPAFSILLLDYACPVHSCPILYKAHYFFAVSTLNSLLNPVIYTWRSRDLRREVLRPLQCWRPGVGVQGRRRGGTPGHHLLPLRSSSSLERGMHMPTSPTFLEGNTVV
Experiment [3] deals with T1, Probable nicotinate-nucleotide adenylyltransferase (Staphylococcus aureus (strain N315), UniProt P65502). The class given is functional, Staphylococcus aureus subsp. aureus N315.
T1 sequence (P65502 whole entry): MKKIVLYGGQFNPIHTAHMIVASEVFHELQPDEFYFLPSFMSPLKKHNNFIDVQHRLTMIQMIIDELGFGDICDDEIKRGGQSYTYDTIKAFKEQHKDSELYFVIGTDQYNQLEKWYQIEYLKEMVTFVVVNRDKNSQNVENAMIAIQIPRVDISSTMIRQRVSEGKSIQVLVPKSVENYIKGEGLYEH
The target in another experiment is Protein Tat (Human immunodeficiency virus type 1 group M subtype B (isolate HXB2)(HIV-1), UniProt P04608). Format: functional.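 Note: tat binding to TAR RNA read out by fluorescence polarization.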
The test system of experiment [4] is BJ. Kind of experiment: BJ-TERT fibroblast viability loss – cell-based, RAS-independent, luminescence, dose response (AID 1933). Format: functional. The note with it: Homo sapiens.
A short description of experiment [5]: DRD fibroblast viability loss – cell-based, non-viral oncogenic, luminescence, dose response (AID 1934). The class given is functional. The note with it: Homo sapiens.
In a further experiment the target is Nonstructural protein 1 (Influenza A virus, UniProt Q194T2). The class given is functional, Influenza A virus (A/California/07/2009(H1N1)).
Chain of Nonstructural protein 1 (Q194T2 whole entry): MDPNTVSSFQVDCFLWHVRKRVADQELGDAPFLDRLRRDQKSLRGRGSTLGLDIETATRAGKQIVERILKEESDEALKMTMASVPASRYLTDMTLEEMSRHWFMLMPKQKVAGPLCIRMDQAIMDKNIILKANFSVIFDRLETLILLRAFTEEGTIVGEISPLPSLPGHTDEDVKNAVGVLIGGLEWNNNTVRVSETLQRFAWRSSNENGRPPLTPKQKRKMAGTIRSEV
The target of experiment [6] is T1, Probable nicotinate-nucleotide adenylyltransferase. The class given is functional, Staphylococcus aureus subsp. aureus N315. The note with it: read-out: IC50_Mean.
Experiment [7] is described as follows: viability loss in THP-1 monocytes – THP-1 cells, cytotoxicity control for Vif-APOBEC3G degradation inhibitor project, dose response (AID 1117359). The class given is functional. The note with it: THP-1.
The target in experiment [8] is Glucose-6-phosphate 1-dehydrogenase (Homo sapiens, UniProt P11413). Kind of experiment: inhibition of Homo sapiens G6PD, dose series – biochemical, fluorescence, selectivity assay for P. falciparum G6PD inhibitor project, dose response (AID 504792). Format: functional.
The test system of experiment [9] is BJ. Kind of experiment: BJ-TERT-LT-ST fibroblast viability loss – cell-based, RAS-independent, luminescence, dose response (AID 1935).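 Note: BJ fibroblasts immortalized with TERT plus LT and ST oncogenes.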 The settings on record: Homo sapiens. The class given is functional.
Experiment [10] relates to BJ. Put plainly: cells. The settings on record: Homo sapiens. The class given is functional, cell-based.
The target of experiment [11] is Glutathione-S-transferase (Schistosoma japonicum, UniProt Q26513). Put plainly: GST-antibody interaction or FRET quenching – biochemical, TR-FRET, artefact control for Vif-APOBEC3G degradation inhibitor project, dose response (AID 1117362). The class given is functional.
Chain of Glutathione-S-transferase (Q26513 whole entry): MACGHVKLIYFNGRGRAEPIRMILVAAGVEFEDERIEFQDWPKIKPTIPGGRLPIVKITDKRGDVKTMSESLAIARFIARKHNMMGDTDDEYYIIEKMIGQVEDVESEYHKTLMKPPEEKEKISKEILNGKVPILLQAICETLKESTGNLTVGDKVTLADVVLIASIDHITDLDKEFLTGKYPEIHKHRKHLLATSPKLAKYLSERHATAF
Another experiment addresses Paired box protein Pax-8 (Homo sapiens, UniProt Q06710). Put plainly: PAX8 transcriptional activity inhibition in RMG-I – RMG-I cells, luciferase, cherry-pick, dose response (AID 687027).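 Note: luciferase reporter driven by Pax8 target thyroperoxidase promoter measured by SteadyGlo luminescence.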 The class given is functional, cell-based.
Experiment [12] can be described thus: antimalarial activity against Dd2 parasites – SYBR Green fluorescence, erythrocytes, dry powder, set 2, dose response (AID 1159574). Format: functional, cell-based.
Experiment [13] can be described thus: IGROV1 cell killing – plate reader, dry powder samples, PAX8 inhibitor project, dose response (AID 743043). The settings on record: IGROV-1. The class given is functional, cell-based.
In experiment [14] the target is T2, Oxysterols receptor LXR-beta (Homo sapiens, UniProt P55055).
T2 sequence (P55055 whole entry): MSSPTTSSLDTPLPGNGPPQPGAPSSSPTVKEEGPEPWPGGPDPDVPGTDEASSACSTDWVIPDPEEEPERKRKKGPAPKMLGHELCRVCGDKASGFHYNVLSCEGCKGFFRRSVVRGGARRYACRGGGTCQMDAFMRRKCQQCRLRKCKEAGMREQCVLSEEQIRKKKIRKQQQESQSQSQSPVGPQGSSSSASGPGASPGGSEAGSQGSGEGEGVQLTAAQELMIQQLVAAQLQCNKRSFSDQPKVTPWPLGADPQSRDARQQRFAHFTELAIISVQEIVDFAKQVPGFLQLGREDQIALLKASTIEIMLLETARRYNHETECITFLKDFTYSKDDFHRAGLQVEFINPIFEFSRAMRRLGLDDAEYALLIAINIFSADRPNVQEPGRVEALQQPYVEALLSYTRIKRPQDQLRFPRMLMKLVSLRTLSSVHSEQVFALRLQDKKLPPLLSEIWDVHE
Kind of experiment: LXR agonists, Gal4 luciferase reporter, dose response, counter-screen for ssDAF-12 agonist project, cell-based, luminescence, HEK293, S. stercoralis campaign (AID 720737). The class given is functional. The note with it: read-out: IC50 (the source's name). (A reporter such as luciferase makes a cellular process visible.)

The nature of experiment [15]: Luminescence-based cell-based high throughput dose response assay to identify activators of the DAF-12 from the parasite S. stercoralis (ssDAF-12). The class given is functional.
Another experiment has as its system Streptococcus. Put plainly: GAS UMAA2166 growth inhibition – luminescence, BacTiterGlo, counter-screen for streptokinase expression inhibitor project, dose response (AID 1915).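 Note: potency for reduction of bacterial viability or growth.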 The class given is functional, organism-based. (The purpose of a counterscreen is to sort out artefacts and off-target activity.)
A further experiment concerns the target Ephrin type-A receptor 4 (Mus musculus, UniProt Q03137). Kind of experiment: EphA4 ligand-binding antagonists – biochemical, colorimetric, mouse EphA4, primary screen (AID 689). The class given is functional.
A further experiment concerns the target T3, Streptokinase A (Streptococcus pyogenes serotype M1, UniProt P10520).
T3 sequence (P10520 whole entry): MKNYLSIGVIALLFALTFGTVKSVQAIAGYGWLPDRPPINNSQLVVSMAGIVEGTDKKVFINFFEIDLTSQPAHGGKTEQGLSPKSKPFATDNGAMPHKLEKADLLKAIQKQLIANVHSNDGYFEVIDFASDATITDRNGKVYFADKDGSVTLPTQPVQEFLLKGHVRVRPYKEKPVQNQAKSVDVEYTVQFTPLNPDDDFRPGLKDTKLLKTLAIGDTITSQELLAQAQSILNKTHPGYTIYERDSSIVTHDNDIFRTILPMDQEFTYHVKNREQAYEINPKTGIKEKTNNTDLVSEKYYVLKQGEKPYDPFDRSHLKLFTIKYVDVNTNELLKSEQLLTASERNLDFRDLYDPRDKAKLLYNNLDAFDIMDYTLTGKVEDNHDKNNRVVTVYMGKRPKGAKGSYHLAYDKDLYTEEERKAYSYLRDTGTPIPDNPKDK
Put plainly: viability-normalized secreted streptokinase activity reduction – plasminogen activation absorbance, OD405, dose response (AID 1914).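 Note: secreted streptokinase activity via plasminogen activation per viability signal from cell pellet.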 The class given is functional, Streptococcus pyogenes M1 GAS.

For experiment [16], the system named is Streptococcus sp. 'group A'. Put plainly: Streptococcus pyogenes SK(-)GAS viability under kanamycin – luminescence, BacTiterGlo, confirmation, counter-screen for streptokinase expression inhibitor project, dose response (AID 1900). Format: functional, organism-based.
Experiment [17] in a line: rise of 4N DNA cells, HeLa – IC50, dose response (AID 1117351). The class given is functional, cell-based.
A short description of experiment [18]: rise of 2N DNA cells, HeLa – IC50, dose response (AID 1117349). The class given is functional, cell-based.
The target of another experiment is T4, NADPH oxidase 1 (Homo sapiens, UniProt Q9Y5S8).
T4 sequence (Q9Y5S8 whole entry): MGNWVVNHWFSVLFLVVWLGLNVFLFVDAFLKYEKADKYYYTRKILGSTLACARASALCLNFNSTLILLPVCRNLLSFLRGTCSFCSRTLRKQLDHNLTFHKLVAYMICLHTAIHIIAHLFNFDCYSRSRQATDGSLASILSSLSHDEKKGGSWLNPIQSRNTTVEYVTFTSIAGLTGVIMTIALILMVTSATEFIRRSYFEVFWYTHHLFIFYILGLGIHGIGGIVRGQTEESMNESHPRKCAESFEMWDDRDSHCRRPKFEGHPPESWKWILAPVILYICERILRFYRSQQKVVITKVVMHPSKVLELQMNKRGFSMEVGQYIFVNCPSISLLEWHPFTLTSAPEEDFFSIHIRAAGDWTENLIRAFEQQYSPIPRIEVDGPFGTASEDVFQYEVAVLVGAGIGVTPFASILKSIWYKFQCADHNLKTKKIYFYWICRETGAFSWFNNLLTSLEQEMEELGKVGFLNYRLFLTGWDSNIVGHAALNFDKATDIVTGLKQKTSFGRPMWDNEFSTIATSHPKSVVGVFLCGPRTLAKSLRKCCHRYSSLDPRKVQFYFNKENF
Put plainly: Late-stage luminescence-based cell-based dose response assay to identify inhibitors of NADPH oxidase 1 (NOX1): Synthesized analogs 2. The class given is functional.

In experiment [19] the target is T5, Voltage-gated inwardly rectifying potassium channel KCNH2 (Homo sapiens, UniProt Q12809). Put plainly: concentration-dependent hERG rescue from blockers – cell-based, thallium flux, dose response (AID 2121). The class given is ADME. On the technique in general: The hERG channel carries a current that helps repolarise heart muscle cells.
T5 sequence (Q12809 whole entry): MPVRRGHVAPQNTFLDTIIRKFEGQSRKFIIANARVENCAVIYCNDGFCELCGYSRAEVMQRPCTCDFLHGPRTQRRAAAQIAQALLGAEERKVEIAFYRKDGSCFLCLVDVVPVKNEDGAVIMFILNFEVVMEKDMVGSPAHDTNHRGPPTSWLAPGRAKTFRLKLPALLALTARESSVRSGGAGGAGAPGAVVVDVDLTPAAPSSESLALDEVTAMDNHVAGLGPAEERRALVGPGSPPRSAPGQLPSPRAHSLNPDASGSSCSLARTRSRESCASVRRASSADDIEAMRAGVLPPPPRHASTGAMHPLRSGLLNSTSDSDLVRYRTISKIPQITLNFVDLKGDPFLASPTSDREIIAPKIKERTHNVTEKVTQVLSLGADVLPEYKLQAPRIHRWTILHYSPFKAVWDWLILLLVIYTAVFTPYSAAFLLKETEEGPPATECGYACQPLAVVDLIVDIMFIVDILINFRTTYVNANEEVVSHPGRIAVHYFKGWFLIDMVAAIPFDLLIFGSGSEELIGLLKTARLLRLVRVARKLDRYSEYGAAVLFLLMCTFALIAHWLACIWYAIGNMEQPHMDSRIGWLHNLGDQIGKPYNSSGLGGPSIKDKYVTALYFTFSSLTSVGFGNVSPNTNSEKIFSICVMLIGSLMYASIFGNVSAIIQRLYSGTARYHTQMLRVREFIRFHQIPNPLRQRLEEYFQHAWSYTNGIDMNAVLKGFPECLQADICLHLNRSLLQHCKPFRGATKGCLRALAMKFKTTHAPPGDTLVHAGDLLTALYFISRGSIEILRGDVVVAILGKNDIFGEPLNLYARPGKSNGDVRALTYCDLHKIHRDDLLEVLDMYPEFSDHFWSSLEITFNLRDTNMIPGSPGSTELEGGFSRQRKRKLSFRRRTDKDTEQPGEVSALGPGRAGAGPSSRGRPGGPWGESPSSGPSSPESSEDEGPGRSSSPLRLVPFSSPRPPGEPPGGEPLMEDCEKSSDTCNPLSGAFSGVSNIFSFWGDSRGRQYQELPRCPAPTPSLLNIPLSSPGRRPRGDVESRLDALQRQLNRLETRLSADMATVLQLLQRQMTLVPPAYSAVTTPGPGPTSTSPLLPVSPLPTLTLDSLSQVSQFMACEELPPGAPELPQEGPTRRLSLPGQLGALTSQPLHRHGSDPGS
Experiment [20] can be described thus: viability of uninfected HEp-2 cells – cell-based, HTS, cytotoxicity control for RSV inhibitor project, dose response (AID 2410). The class given is functional. The note with it: human respiratory syncytial virus.
The target of experiment [21] is T6, Bcl-2-related protein A1 (Mus musculus, UniProt Q07440).
T6 sequence (Q07440 whole entry): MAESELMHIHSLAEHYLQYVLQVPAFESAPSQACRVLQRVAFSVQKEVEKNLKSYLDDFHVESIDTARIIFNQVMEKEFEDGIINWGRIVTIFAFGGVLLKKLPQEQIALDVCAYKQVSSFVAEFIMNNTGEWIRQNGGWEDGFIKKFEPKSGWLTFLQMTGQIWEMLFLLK
Put plainly: small-molecule antagonists of Bfl-1/BH3 interaction – biochemical, TR-FRET, mouse Bfl-1, confirmation (AID 621).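 Note: TR-FRET binding of GST-Bfl-1 to FITC-labelled Bid peptide via terbium antibody.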

The target of experiment [22] is T6, Bcl-2-related protein A1. Kind of experiment: Bfl-1 binding inhibitors, SAR follow-up, biochemical, fluorescence polarization (AID 1070).
Experiment [23] concerns Vero. Kind of experiment: mammalian cell viability reduction – secondary assay, cytotoxicity control for West Nile virus antiviral project, dose response (AID 1650). The class given is functional. The settings on record: Chlorocebus sabaeus.
Experiment [24] concerns Vero. Kind of experiment: inhibition of WNV-induced cytopathic effect – cell-based, CPE readout (AID 1621). The class given is functional. The note with it: Chlorocebus sabaeus.
The target in experiment [25] is Protein-tyrosine kinase 2-beta (Homo sapiens, UniProt Q14289).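 Note: potency of inhibitors of PYK2 kinase phosphorylation of poly-GT substrate.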
Chain of Protein-tyrosine kinase 2-beta (Q14289 whole entry): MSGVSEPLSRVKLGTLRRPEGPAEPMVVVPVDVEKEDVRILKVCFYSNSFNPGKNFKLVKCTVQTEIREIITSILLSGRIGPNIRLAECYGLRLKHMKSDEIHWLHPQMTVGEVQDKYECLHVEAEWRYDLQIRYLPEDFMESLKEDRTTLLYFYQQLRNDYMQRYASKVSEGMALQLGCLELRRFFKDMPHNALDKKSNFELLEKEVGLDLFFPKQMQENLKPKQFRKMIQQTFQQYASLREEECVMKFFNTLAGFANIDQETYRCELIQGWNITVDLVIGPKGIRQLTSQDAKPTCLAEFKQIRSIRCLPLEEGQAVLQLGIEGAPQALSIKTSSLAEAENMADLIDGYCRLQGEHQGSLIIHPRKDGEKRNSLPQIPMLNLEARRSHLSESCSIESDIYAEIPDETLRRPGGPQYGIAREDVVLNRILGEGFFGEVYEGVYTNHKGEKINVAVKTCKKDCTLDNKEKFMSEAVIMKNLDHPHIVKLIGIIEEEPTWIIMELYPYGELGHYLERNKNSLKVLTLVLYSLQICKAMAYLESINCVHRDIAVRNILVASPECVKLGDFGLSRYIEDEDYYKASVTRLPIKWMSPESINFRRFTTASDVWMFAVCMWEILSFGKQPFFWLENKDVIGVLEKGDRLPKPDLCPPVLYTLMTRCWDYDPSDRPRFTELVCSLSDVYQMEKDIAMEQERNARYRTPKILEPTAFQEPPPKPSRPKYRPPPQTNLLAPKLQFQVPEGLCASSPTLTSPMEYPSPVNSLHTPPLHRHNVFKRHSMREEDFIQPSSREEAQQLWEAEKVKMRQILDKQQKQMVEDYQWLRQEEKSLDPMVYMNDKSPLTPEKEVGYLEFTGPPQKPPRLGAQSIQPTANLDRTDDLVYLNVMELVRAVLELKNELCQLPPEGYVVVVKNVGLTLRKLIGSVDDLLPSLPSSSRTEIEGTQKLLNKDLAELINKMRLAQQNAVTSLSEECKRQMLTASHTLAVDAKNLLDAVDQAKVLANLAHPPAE
The next experiment concerns the target Heat shock protein HSP90 (Homo sapiens, UniProt P07900+P08238). Kind of experiment: Hsp90 blockade concentration-response – dose response (AID 712). Format: functional.
Experiment [26] addresses T5, Voltage-gated inwardly rectifying potassium channel KCNH2. The note with it: Potency.
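Throughout, for IC50 Mean: confirmatory dose-response retesting of NadD inhibitor hits first found in an ultra-high-throughput screen.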

Chain of Ephrin type-A receptor 4 (Q03137 whole entry): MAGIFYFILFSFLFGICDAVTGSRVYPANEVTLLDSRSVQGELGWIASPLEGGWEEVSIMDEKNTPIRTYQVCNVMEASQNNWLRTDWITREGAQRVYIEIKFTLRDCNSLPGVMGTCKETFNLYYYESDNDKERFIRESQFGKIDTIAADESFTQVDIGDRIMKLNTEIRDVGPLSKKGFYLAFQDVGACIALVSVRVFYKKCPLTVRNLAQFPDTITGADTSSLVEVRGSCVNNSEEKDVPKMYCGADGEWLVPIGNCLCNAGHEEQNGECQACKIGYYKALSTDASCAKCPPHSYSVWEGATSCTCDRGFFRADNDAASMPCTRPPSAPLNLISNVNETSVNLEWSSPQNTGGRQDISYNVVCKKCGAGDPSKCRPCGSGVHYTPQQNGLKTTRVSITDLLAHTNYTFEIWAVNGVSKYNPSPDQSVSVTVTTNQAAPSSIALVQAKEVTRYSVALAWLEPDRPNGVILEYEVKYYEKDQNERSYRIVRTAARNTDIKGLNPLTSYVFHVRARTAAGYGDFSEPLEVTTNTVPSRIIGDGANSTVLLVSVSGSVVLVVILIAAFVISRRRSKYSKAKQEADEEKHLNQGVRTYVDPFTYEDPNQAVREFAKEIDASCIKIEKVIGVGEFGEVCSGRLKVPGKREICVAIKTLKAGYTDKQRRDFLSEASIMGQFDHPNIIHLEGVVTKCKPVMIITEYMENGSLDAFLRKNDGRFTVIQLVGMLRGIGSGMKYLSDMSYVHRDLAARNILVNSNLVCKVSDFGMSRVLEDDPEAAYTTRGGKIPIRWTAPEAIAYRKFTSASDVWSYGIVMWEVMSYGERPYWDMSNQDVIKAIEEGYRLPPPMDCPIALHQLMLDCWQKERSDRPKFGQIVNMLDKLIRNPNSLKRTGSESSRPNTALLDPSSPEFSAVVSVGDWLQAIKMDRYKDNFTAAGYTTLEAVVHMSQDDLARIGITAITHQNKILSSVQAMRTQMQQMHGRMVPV
Chain of Paired box protein Pax-8 (Q06710 whole entry): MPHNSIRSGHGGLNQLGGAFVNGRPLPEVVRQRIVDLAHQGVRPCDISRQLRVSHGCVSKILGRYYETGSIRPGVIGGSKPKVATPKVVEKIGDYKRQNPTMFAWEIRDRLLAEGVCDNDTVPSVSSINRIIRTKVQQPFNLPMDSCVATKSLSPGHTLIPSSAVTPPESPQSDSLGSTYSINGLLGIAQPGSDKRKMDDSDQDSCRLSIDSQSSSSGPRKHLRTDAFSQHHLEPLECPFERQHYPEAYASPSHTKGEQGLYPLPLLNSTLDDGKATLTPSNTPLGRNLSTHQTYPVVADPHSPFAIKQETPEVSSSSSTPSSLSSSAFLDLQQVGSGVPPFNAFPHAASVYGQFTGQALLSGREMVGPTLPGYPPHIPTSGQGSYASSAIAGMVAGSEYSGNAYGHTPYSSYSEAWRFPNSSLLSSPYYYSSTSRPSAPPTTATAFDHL

With `CC(C)(C)c1ccc(CN2CCN(C(=O)/C=C/c3ccc(Br)cc3)CC2)cc1`, in experiment [1], the IC50 was 0.00936 µM (active).

Take `Cc1ccc(C2CC(=O)c3cnc(N4CCc5ccccc5C4)nc3C2)cc1` (stereo not given): the EC50 in [2] is recorded as > 50 µM (not active).

As usually defined, the CC50 is the concentration that lowers cell viability or growth by half. Consider `CCN1/C(=C/C=C/C=C/C=C/c2sc3ccccc3[n+]2CC)Sc2ccccc21`, for which the IC50 in experiment [3] was 19.8 µM (active); at Protein Tat, > 100 µM (active); on Nonstructural protein 1, 5.73 µM (active); in [6], 27 µM (active); in experiment [8], > 80 µM (inactive); in experiment [11], 3.88 µM (active). The EC50 in the experiment with BJ [4] is 3.21 µM (active); in [5] it was 10.6 µM (active); in the experiment with BJ [9] it was 11.8 µM (inconclusive); with BJ [10], 17.8 µM (active). The CC50 in [7] is 1.26 µM (active).

Usually AC50 stands for the concentration at which the activity in the assay is half-maximal. For `COc1ccc(NC(=O)N2CCCCN3[C@H](CO)[C@H](c4ccc(C#Cc5ccccc5)cc4)[C@H]3C2)cc1`, the results for the AC50 (at Paired box protein Pax-8; in [12]; in experiment [13]) were 23.2 µM (active), 3.22 µM (active) and 46.7 µM (active), respectively.

For the molecule `NC(=O)c1ccccc1NC(=O)c1ccc2ccccc2c1`, the EC50 in experiment [14] is > 67.6 µM (inactive). Moreover, the IC50 in experiment [15] is > 67.6 µM (inactive).

With `CCC(C)COC(=O)C(C#N)c1nc2ccccc2nc1N1CCCCC1` (stereo not given), the EC50 is 150 µM (active) with Streptococcus, > 150 µM (not active) on Streptokinase A and 41.9 µM (active) in [16]. The IC50 at Ephrin type-A receptor 4 was 17.5 µM (active).

On to `Cc1cc(CC(C)CC(C)(C)C)n(O)c(=O)c1` (stereo not given) [PIROCTONE], for which the IC50 in experiment [17] and in experiment [18] was > 10 µM (inactive) in each case.

As for `CN1c2ccccc2Sc2cc(NC(=O)c3ccc(C(=O)c4ccccc4)cc3)ccc21`, at NADPH oxidase 1, the IC50 is recorded as > 50 µM (not active).

As for `CCOC(=O)c1sc2nc(Cc3ccc(Cl)cc3)[nH]c(=S)c2c1C`, the figures for the EC50 (in experiment [19]; on Streptokinase A) were 0.92 µM (active) and > 150 µM (not active), respectively.

With `COc1ccc2nc(O)c(-c3nnn(-c4ccc(Cl)c(Cl)c4)n3)cc2c1`, the CC50 in experiment [20] was > 50 µM (active). For the same molecule, the IC50 on Bcl-2-related protein A1 [21] and at Bcl-2-related protein A1 [22] was > 100 µM (not active) throughout.

As for `CCN(CC)S(=O)(=O)c1ccc2nc(O)c3ccccc3c2c1`, the cytotoxic concentration (CC50) with Vero [23] was 38.9 µM (active). For the same molecule, the IC50 with Vero [24] was 45.5 µM (active).

With `C[C@H]1CCCC(=O)CCC/C=C/c2cc(O)cc(O)c2C(=O)O1` [ZEARALENONE], the IC50 was 6.92 µM (active) in experiment [25] and 2.402 µM on Heat shock protein HSP90. In addition, in experiment [26], the AC50 was 39.8 µM (inconclusive) and 56.2 µM (inconclusive).
